Legend:
JURKAT and HSB2 cells = test: Soft agar colony formation assay (anchorage-independent growth); type: cell-based, human; conditions: JURKAT and HSB2, soft agar colony formation (FIG. 12O-R)
Procedure: FBXO42-KO cells were rescued with WT FBXO42 or F-box deletion mutant and were used in the following studies. (A-C) The mRNA levels of Notch target genes in the treated HEK293T (A), JURKAT (B) and HSB2 (C) cells were determined by qPCR. (D-G) The invasion abilities of the treated JURKAT (D) and HSB2 (F) cells were evaluated using a 3D culture system with Matrigel. Scale bars, 50 μm. The respective average diameter of the spheres in D and F was summarized, respectively (E and G). (H-K) Anchorage-independent growth of the rescued JURKAT (H) and HSB2 (J) cells was measured using a soft agar colony formation assay. The number of colonies in H and J was counted and summarized, respectively (I and K). (L) JURKAT and HSB2 cells were treated with MLN4924 in a concentration-gradient manner for 36 h and then evaluated for the cell viability using cell counting kit-8 assay. (M and N) The expression of Notch target genes in MLN4924-treated JURKAT (M) and HSB2 (N) cells were determined by qPCR. (O-R) Anchorage-independent growth of MLN4924-treated JURKAT (0) and HSB2 (Q) cells was measured using soft agar colony formation assays. The number of colonies was counted and summarized (P and R). (A-R, n=3) The data are shown as the mean±SEM from the independent experiments. P values were calculated using one-way ANOVA for multiple comparisons or two-tailed Student's t-tests. *P<0.05, ** P<0.01, *** P<0.001.

[1] = test system: global protein ubiquitination; test: Global mass spectrometry-based analysis of protein ubiquitination; type: cell-based; conditions: global ubiquitination changes upon MLN4924 treatment (FIGS. 5E and 5F)
Procedure: (A) Endogenous RBPJ ubiquitination was measured under FBXO42 overexpression after immunoprecipitation with antibody against RBPJ and immunoblotted for Ub. Five percent lysate was used as the input control. (B) cSFB-RBPJ, hemagglutinin-ubiquitin (HA-Ub) and Myc-FBXO42 WT or AK mutant were cotransfected into HEK293T cells as indicated and treated with MG132 for 4 h. The cell lysates were incubated with S beads and analyzed by western blotting for RBPJ polyubiquitination detection. (C) Peptide sequence with ubiquitination modification identified in WT and FBXO42 KO cells. (D) HEK293T cells were cotransfected with Myc-FBXO42, HA-Ub WT along with cSFB-RBPJ WT or its lysine mutants as indicated. The cell lysates were incubated with S beads and analyzed by western blotting for RBPJ polyubiquitination detection. (E) Summary of identified peptides in global ubiquitination analysis upon MLN4924 treatment or FBXO42 depletion. (F) Percentage of ubiquitinated peptides among different groups. (G and H) Gene Ontology analysis of these proteins with differential ubiquitination modification. (I and J) Venn diagram showing the overlap between identified differential proteins with reported Notch interactors.
Global protein ubiquitination analysis was performed according to the manufacture's guidance (5562, CST). […]

JURKAT xenograft = type: in vivo; conditions: 30 mg/kg subcutaneously twice daily for 21 days, BALB/c nude mice (FIG. 13S-V)
Procedure: (A-H) Xenograft tumor growth studies were performed with WT or FBXO42-KO JURKAT (A-D) and HSB2 (E-H) cells. Mice were euthanized 4 weeks after tumor cell injection. The tumors were excised, photographed, and weighed. The volumes (B and F) and weights (C and G) of the tumors were measured, respectively. The mRNA levels of Notch target genes in tumors were determined by qPCR, respectively (D and H). (I-K) In vivo leukemia mouse model was established by injecting WT and FBXO42-KO JURKAT cells carrying GFP into NSG mice intravenously. The percentage of GFP^+ leukemia cells in peripheral blood was measured weekly by flow cytometry analysis (I) and summarized (K). […] (L-O) Spleens in mice from different groups were excised, a representative image is shown (L), and the spleen weight was measured (M). Tumor cell invasion was evaluated by measuring GFP intensity by fluorescence microscopy (N) and hemoxylin and eosin staining (O). […] The volumes (S) and weights (T) of the tumors and mouse weight (U) were measured. (A-O, S-V, n=5, P-R, n=10) Quantitative data are presented as mean±SEM. P values were calculated using two-tailed Student's t-tests. *P<0.05, **P<0.01, NS, not significant.
For the evaluation of MLN4924 efficacy in vivo, 6- to 8-week-old female BALB/c nude mice were inoculated with 5×10^6 JURKAT cells subcutaneously in the right flank, and tumor growth was monitored with caliper measurements. […]

Question: With `NS(=O)(=O)OC[C@@H]1C[C@@H](n2ccc3c(N[C@H]4CCc5ccccc54)ncnc32)C[C@@H]1O` [MLN4924] as the compound, how does the “anchorage-independent growth of leukemia cells” value (JURKAT and HSB2 cells) read?
Answer: diminished

Question: What about the “percentage of ubiquitinated peptides” value [1] of the same compound?
Answer: decreased

Question: And the “leukemia burden in vivo (tumor growth rate)” value (JURKAT xenograft)?
Answer: reduced

— patent US20260023068A1, “USE OF A FBXO42 SPECIFIC INHIBITOR IN TREATING NOTCH SIGNALING-DEPENDENT DISEASE” (WESTLAKE UNIVERSITY, priority 2022, published 2026)
